Results from US20060069132A1, “Azolecarboxamide herbicides” (priority 2004, published 2006).

Assays:
Surinam grass = experiment: Test B pre-/postemergence herbicide test; type: in vivo, Urochloa decumbens; settings: for Surinam Grass plant response rating: postemergence, scale 0 (no effect) to 100 (complete control)
Summary of the method: (§1)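 Herbicidal effect was judged by eye on a 0–100 scale after plants stood 13 to 15 days in the greenhouse following pre- or postemergence treatment with surfactant-containing formulations.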

corn = experiment: Test B pre-/postemergence herbicide test; type: in vivo, Zea mays; settings: for Corn plant response rating: postemergence, scale 0 (no effect) to 100 (complete control)
Summary of the method: as §1

giant foxtail = experiment: Test B pre-/postemergence herbicide test; type: in vivo, Setaria faberi; settings: for Foxtail, Giant plant response rating: postemergence, scale 0 (no effect) to 100 (complete control)
Summary of the method: as §1

lambsquarters = experiment: Test B pre-/postemergence herbicide test; type: in vivo, Chenopodium album; settings: for Lambsquarters plant response rating: postemergence, scale 0 (no effect) to 100 (complete control)
Summary of the method: as §1

velvetleaf = experiment: Test B pre-/postemergence herbicide test; type: in vivo, Abutilon theophrasti; settings: for Velvetleaf plant response rating: postemergence, scale 0 (no effect) to 100 (complete control)
Summary of the method: as §1

cocklebur = experiment: Test B pre-/postemergence herbicide test; type: in vivo, Xanthium strumarium; settings: for Cocklebur plant response rating: postemergence, scale 0 (no effect) to 100 (complete control)
Summary of the method: as §1

[1] = tested on: small flower umbrella sedge; experiment: Test B flooded paddy test; type: in vivo, Cyperus difformis; settings: 1000 g ai/ha, scale 0 to 100 (0 no effect, 100 complete control)
Summary of the method: (§2)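 Treated at 2-leaf (paddy) or 1–4-leaf, 2–18 cm (postemergence); greenhouse 13–15 d; visual score vs control, 0 none to 100 complete control; dash = not tested.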

large crabgrass = experiment: Test B pre-/postemergence herbicide test; type: in vivo, Digitaria sanguinalis; settings: for Crabgrass, Large plant response rating: postemergence, scale 0 (no effect) to 100 (complete control)
Summary of the method: as §1

barnyardgrass [2] = experiment: Test B pre-/postemergence herbicide test; type: in vivo, Echinochloa crus-galli; settings: for Barnyardgrass plant response rating: postemergence, scale 0 (no effect) to 100 (complete control)
Summary of the method: as §1

blackgrass = experiment: Test B postemergence herbicide test; type: in vivo, Alopecurus myosuroides; settings: postemergence, visual rating, scale 0 (no effect) to 100 (complete control)
Summary of the method: as §2

rice [3] = experiment: Test B flooded paddy test; type: in vivo, Oryza sativa; settings: 1000 g ai/ha, scale 0 to 100 (0 no effect, 100 complete control)
Summary of the method: as §2

barnyardgrass [4] = experiment: Test B flooded paddy test; type: in vivo, Echinochloa crus-galli; settings: 1000 g ai/ha, scale 0 to 100 (0 no effect, 100 complete control)
Summary of the method: as §2

pigweed = experiment: Test B pre-/postemergence herbicide test; type: in vivo, Amaranthus retroflexus; settings: for Pigweed plant response rating: postemergence, scale 0 (no effect) to 100 (complete control)
Summary of the method: as §1

morningglory = experiment: Test B pre-/postemergence herbicide test; type: in vivo, Ipomoea coccinea; settings: for Morningglory plant response rating: postemergence, scale 0 (no effect) to 100 (complete control)
Summary of the method: as §1

rice [5] = experiment: Test B pre-/postemergence herbicide test; type: in vivo, Oryza sativa; settings: 0 = no effect, 100 = complete control, preemergence
Summary of the method: as §1

wheat = experiment: Test B postemergence herbicide test; type: in vivo, Triticum aestivum; parameters: key to Wheat plant response rating: 0 = no effect, 100 = complete control; settings: postemergence, visual rating, scale 0 (no effect) to 100 (complete control)
Summary of the method: (§3)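 Visual ratings, 0 (no effect) to 100 (complete control), made versus controls after 13–15 d greenhouse. Paddy plants treated at 2-leaf stage; postemergence plants at 1- to 4-leaf stage, 2–18 cm tall.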

wild oat = experiment: Test B postemergence herbicide test; type: in vivo, Avena fatua; settings: postemergence, visual rating, scale 0 (no effect) to 100 (complete control)
Summary of the method: as §3

ducksalad = experiment: Test B flooded paddy test; type: in vivo, Heteranthera limosa; settings: 1000 g ai/ha, scale 0 to 100 (0 no effect, 100 complete control)
Summary of the method: as §2

[6] = 125 g ai/ha, 0 = no effect, 100 = complete control, preemergence
[7] = 500 g ai/ha, visual rating, 0 = no effect, 100 = complete control, preemergence

CCc1nn(C(C)(C)C)cc1C(=O)Nc1ccc(F)c(C(=O)N(C)C)c1 [Compound 239]
Surinam Grass plant response rating (0 to 100 scale) (Surinam grass; [6]): 0
Plant response rating, Surinam Grass (Surinam grass; [7]): 0
Surinam Grass plant response rating (Surinam grass; 125 g ai/ha, visual rating): 0
Surinam Grass plant response rating (Surinam grass; 500 g ai/ha, visual rating): 30
Corn plant response rating (0 to 100 scale) (corn; [6]): 0
Plant response rating, Corn (corn; [7]): 0
Corn plant response rating (corn; 125 g ai/ha, visual rating): 0
Corn plant response rating (corn; 500 g ai/ha, visual rating): 20
Foxtail, Giant plant response rating (0 to 100 scale) (giant foxtail; [6]): 0
Plant response rating, Foxtail, Giant (giant foxtail; [7]): 0
Foxtail, Giant plant response rating (giant foxtail; 125 g ai/ha, visual rating): 0
Foxtail, Giant plant response rating (giant foxtail; 500 g ai/ha, visual rating): 0
Lambsquarters plant response rating (0 to 100 scale) (lambsquarters; [6]): 20
Plant response rating, Lambsquarters (lambsquarters; [7]): 70
Lambsquarters plant response rating (lambsquarters; 125 g ai/ha, visual rating): 0
Lambsquarters plant response rating (lambsquarters; 500 g ai/ha, visual rating): 30
Velvetleaf plant response rating (0 to 100 scale) (velvetleaf; [6]): 0
Plant response rating, Velvetleaf (velvetleaf; [7]): 0
Velvetleaf plant response rating (velvetleaf; 125 g ai/ha, visual rating): 0
Velvetleaf plant response rating (velvetleaf; 500 g ai/ha, visual rating): 10
Cocklebur plant response rating (0 to 100 scale) (cocklebur; [6]): 0
Plant response rating, Cocklebur (cocklebur; [7]): 0
Cocklebur plant response rating (cocklebur; 125 g ai/ha, visual rating): 0
Cocklebur plant response rating (cocklebur; 500 g ai/ha, visual rating): 20
Sedge, Umbrella plant response rating [1]: 70
Crabgrass, Large plant response rating (0 to 100 scale) (large crabgrass; [6]): 0
Plant response rating, Crabgrass, Large (large crabgrass; [7]): 100
Crabgrass, Large plant response rating (large crabgrass; 125 g ai/ha, visual rating): 0
Crabgrass, Large plant response rating (large crabgrass; 500 g ai/ha, visual rating): 20
Barnyardgrass plant response rating (0 to 100 scale) (barnyardgrass [2]; [6]): 0
Plant response rating, Barnyardgrass (barnyardgrass [2]; [7]): 60
Barnyardgrass plant response rating (barnyardgrass [2]; 125 g ai/ha, visual rating): 0
Barnyardgrass plant response rating (barnyardgrass [2]; 500 g ai/ha, visual rating): 0
Blackgrass plant response rating (blackgrass; 125 g ai/ha): 0
Blackgrass plant response rating (blackgrass; 500 g ai/ha): 0
Rice plant response rating (rice [3]): 30
Barnyardgrass plant response rating (barnyardgrass [4]): 0
Pigweed plant response rating (0 to 100 scale) (pigweed; [6]): 0
Plant response rating, Pigweed (pigweed; [7]): 70
Pigweed plant response rating (pigweed; 125 g ai/ha, visual rating): 20
Pigweed plant response rating (pigweed; 500 g ai/ha, visual rating): 50
Morningglory plant response rating (0 to 100 scale) (morningglory; [6]): 0
Plant response rating, Morningglory (morningglory; [7]): 0
Morningglory plant response rating (morningglory; 125 g ai/ha, visual rating): 0
Morningglory plant response rating (morningglory; 500 g ai/ha, visual rating): 10
Rice plant response rating (0 to 100 scale) (rice [5]; 125 g ai/ha): 0
Plant response rating, Rice (rice [5]; 500 g ai/ha, visual rating): 0
Wheat plant response rating (wheat; 125 g ai/ha): 0
Wheat plant response rating (wheat; 500 g ai/ha): 0
Oat, Wild plant response rating (wild oat; 125 g ai/ha): 0
Oat, Wild plant response rating (wild oat; 500 g ai/ha): 0
Ducksalad plant response rating (ducksalad): 0
